pIC50: −log10 of the molar value.
Target: Dipeptidyl peptidase 4 (Homo sapiens) (UniProt P27487)
Sequence (P27487 whole entry, looked up): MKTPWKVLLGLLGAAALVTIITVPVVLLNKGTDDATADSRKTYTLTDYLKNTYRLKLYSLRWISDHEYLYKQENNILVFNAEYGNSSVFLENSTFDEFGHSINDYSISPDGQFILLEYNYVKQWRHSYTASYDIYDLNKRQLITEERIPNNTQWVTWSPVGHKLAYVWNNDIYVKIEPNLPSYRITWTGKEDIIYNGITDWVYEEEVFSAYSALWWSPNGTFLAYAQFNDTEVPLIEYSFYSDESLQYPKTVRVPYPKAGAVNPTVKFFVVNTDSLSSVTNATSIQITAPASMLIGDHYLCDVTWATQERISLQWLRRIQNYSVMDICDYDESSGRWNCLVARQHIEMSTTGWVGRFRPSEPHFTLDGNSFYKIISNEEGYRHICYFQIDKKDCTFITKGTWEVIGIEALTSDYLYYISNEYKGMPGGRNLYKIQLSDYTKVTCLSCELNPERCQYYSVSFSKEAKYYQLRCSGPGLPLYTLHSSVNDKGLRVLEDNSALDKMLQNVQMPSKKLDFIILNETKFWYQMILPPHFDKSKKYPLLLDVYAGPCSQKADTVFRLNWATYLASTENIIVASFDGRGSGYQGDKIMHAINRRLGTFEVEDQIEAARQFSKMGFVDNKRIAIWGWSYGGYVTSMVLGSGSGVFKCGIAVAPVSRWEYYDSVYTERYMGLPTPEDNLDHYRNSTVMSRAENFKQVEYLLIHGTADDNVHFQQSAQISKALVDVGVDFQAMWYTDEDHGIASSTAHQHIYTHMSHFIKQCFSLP
Description: Inhibition of human seminal fluid DPP4

- pIC50: 7.11
Compound: NC(=O)c1cccc(CN2CC3CN(C(=O)C[C@H](N)Cc4cc(F)c(F)cc4F)CCN3C2=O)c1 (stereo partly specified)
